These results are taken from patent publication US4332818A, “1,4;3,6-Dianhydro-2,5-diazido-2,5-dideoxy-hexitols” (priority 1980, dated 1982).

Series [1] is described as follows: in vivo. Conditions: mouse, mice. From the text:
(§1) The activity of the compounds of the Formula I has been tested and compared to that of Glutethimid in various tests. As test compound 1,4;3,6-dianhydro-2,5-diazido-2,5-dideoxy-L-mannitol is used.
(§2) In Table I the LD50 and HD50 values measured on mice are disclosed (HD=hypnotic dose). Table II contains the minimal hypnotic doses measured on various animals (HDmin), while in Table III the results of various CNS tests on mice are summarized.

The subject of series [2] is mice. Put plainly: HD50 (hypnotic dose) on mice. The following applies: Mus musculus, HD = hypnotic dose. It is filed as in vivo.
Text: as §1, §2

The test system of series [3] is Mouse. Put plainly: Minimal hypnotic dose (HDmin), mouse. In kind it is in vivo. The following applies: ip.
Text: as §1, §2

The subject of series [4] is Rat. The series is described as follows: Minimal hypnotic dose (HDmin), rat. In kind it is in vivo. Conditions: ip.
Text: as §1, §2

Series [5] deals with Cat. The series is described as follows: Minimal hypnotic dose (HDmin), cat. Conditions: Felis catus, ip. In kind it is in vivo.
Text: as §1, §2

For series [6], the system named is Rabbit. Put plainly: Minimal hypnotic dose (HDmin), rabbit. Conditions: Oryctolagus cuniculus, ip. It is filed as in vivo.
Text: as §1, §2

Series [7] relates to mice. Put plainly: CNS test: Motility. In kind it is in vivo. The following applies: Mus musculus, po.
Text: as §1, §2

Series [8] concerns mice. The series is described as follows: CNS test: Tranquillizing effect (fighting test). It is filed as in vivo. Conditions: Mus musculus, po.
Text: as §1, §2

Series [9] concerns mice. The series is described as follows: CNS test: Narcosis potentiating. It is filed as in vivo. Conditions: Mus musculus, po.
Text: as §1, §2

Series [10] deals with mice. Put plainly: CNS test: Rotating rod. In kind it is in vivo. The following applies: Mus musculus, ip.
Text: as §1, §2

For the compound `CCC1(c2ccccc2)CCC(=O)NC1=O` (stereo not drawn) [Glutethimid, 3-ethyl-3-phenyl-2,6-dioxo-piperidine], the LD50 was determined as 305 mg/kg in series [1] (ip) and 580 mg/kg in series [1] (po). The ED50 came out at 135 mg/kg in [2] (ip); 200 mg/kg in series [2] (po); 135 mg/kg in series [7]; 40 mg/kg in series [8]; 70 mg/kg in series [10]. Also, the minimal effective dose in series [3] was 100 mg/kg; in [4] it was 100 mg/kg; in [5] it was 125 mg/kg; in series [6], 175 mg/kg. The ED100 in series [9] was 30 mg/kg.
